{
  "source": "patent EP0908457B1",
  "about": "“3-(1,2-benzisothiazol- and isoxazol-5-Y1)-2,4(1H,3H)-pyrimidinedione or thione and 3-(1,2-benzisothiazol- and isoxazol-5-y1)-4(3H)-pyrimidinone or thione herbicidal agents” (BASF AKTIENGESELLSCHAFT, priority 1997, dated 1999)",
  "key": {"Cyperus iria [1]": {"test_system": "Cyperus iria", "assay": "Postemergence weed control under flooded paddy conditions, CYPIR (Rice Flatsedge)", "assay_type": "in vivo", "settings": "rated three to four weeks after treatment"}, "[2]": {"test_system": "Cyperus serotinus, Rottb.", "assay": "Postemergence weed control under flooded paddy conditions, CYPSE (Flatsedge)", "assay_type": "in vivo", "settings": "rated three to four weeks after treatment"}, "[3]": {"test_system": "Echinochloa oryzoides (Ard.) Fritsch.", "assay": "Preemergence weed control under flooded paddy conditions, ECHORC (Watergrass (Calif.)); note: meaning of each grade not given here", "assay_type": "in vivo", "settings": "preemergence, flooded paddy, rated three to four weeks after treatment"}, "Sagittaria pygmaea, L. [4]": {"test_system": "Sagittaria pygmaea, L.", "assay": "Postemergence weed control under flooded paddy conditions, SAGPY (Arrowhead (Pygmaea))", "assay_type": "in vivo", "settings": "rated three to four weeks after treatment"}, "Sagittaria pygmaea, L. [5]": {"test_system": "Sagittaria pygmaea, L.", "assay": "Preemergence weed control under flooded paddy conditions, SAGPY (Arrowhead (Pygmaea)); note: meaning of each grade not given here", "assay_type": "in vivo", "settings": "preemergence, flooded paddy, rated three to four weeks after treatment"}, "[6]": {"test_system": "Oryza sativa, (L.) Tebonnet", "assay": "Rice tolerance to post-transplant applications under flooded paddy conditions (Example 187), ORYSAT (Rice, Tebonnet); note: meaning of each grade not given here", "settings": "rated three to four weeks after treatment"}, "[7]": {"test_system": "Cyperus serotinus, Rottb.", "assay": "Preemergence weed control under flooded paddy conditions, CYPSE (Flatsedge); note: meaning of each grade not given here", "assay_type": "in vivo", "settings": "preemergence, rated three to four weeks after treatment"}, "[8]": {"test_system": "Echinochloa oryzoides (Ard.) Fritsch.", "assay": "Postemergence weed control under flooded paddy conditions, ECHORC (Watergrass (Calif.))", "assay_type": "in vivo", "settings": "rated three to four weeks after treatment"}, "[9]": {"test_system": "Oryza sativa, (L.) Tebonnet", "assay": "Rice tolerance to post-transplant applications under flooded paddy conditions (Example 188), ORYSAT (Rice, Tebonnet)", "settings": "rated three to four weeks after treatment"}, "[10]": {"test_system": "Monochoria vaginalis, Presl.", "assay": "Preemergence weed control under flooded paddy conditions, MOOVA (Monochoria); note: meaning of each grade not given here", "assay_type": "in vivo", "settings": "preemergence, flooded paddy, rated three to four weeks after treatment"}, "[11]": {"test_system": "Monochoria vaginalis, Presl.", "assay": "Postemergence weed control under flooded paddy conditions, MOOVA (Monochoria)", "assay_type": "in vivo", "settings": "rated three to four weeks after treatment"}, "Cyperus iria [12]": {"test_system": "Cyperus iria", "assay": "Preemergence weed control under flooded paddy conditions, CYPIR (Rice Flatsedge); note: meaning of each grade not given here", "assay_type": "in vivo", "settings": "preemergence, flooded paddy, rated three to four weeks after treatment"}},
  "data": [
    {"smiles": "COCc1nsc2cc(F)c(-n3c(=O)cc(C(F)(F)F)n(C)c3=O)cc12", "note": "[Example 378, 2,4(1H,3H)-Pyrimidinedione, 3-[6-fluoro-3-(methoxymethyl)-1,2-benzisothiazol-5-yl]-1-methyl-6-(trifluoromethyl)-]", "values": [
      {"measurement": "herbicidal effect rating, CYPIR", "setting": "Cyperus iria [1]; Rate 0.0320 kg/ha", "result": 9.0},
      {"measurement": "herbicidal effect rating, CYPIR", "setting": "Cyperus iria [1]; Rate 0.0620 kg/ha", "result": 9.0},
      {"measurement": "herbicidal effect rating, CYPIR", "setting": "Cyperus iria [1]; Rate 0.1250 kg/ha", "result": 9.0},
      {"measurement": "herbicidal effect rating, CYPSE", "setting": "[2]; Rate 0.0320 kg/ha", "result": 9.0},
      {"measurement": "herbicidal effect rating, CYPSE", "setting": "[2]; Rate 0.0620 kg/ha", "result": 9.0},
      {"measurement": "herbicidal effect rating, CYPSE", "setting": "[2]; Rate 0.1250 kg/ha", "result": 9.0},
      {"measurement": "herbicidal effect rating, ECHORC", "setting": "[3]; Rate 0.0320 kg/ha", "result": 9.0},
      {"measurement": "herbicidal effect rating, ECHORC", "setting": "[3]; Rate 0.0620 kg/ha", "result": 9.0},
      {"measurement": "herbicidal effect rating, ECHORC", "setting": "[3]; Rate 0.1250 kg/ha", "result": 9.0},
      {"measurement": "herbicidal effect rating, ECHORC", "setting": "[3]; Rate 0.2500 kg/ha", "result": 9.0},
      {"measurement": "herbicidal effect rating, SAGPY", "setting": "Sagittaria pygmaea, L. [4]; Rate 0.0320 kg/ha", "result": 9.0},
      {"measurement": "herbicidal effect rating, SAGPY", "setting": "Sagittaria pygmaea, L. [4]; Rate 0.0620 kg/ha", "result": 9.0},
      {"measurement": "herbicidal effect rating, SAGPY", "setting": "Sagittaria pygmaea, L. [4]; Rate 0.1250 kg/ha", "result": 9.0},
      {"measurement": "herbicidal effect rating, SAGPY", "setting": "Sagittaria pygmaea, L. [5]; Rate 0.0320 kg/ha", "result": 9.0},
      {"measurement": "herbicidal effect rating, SAGPY", "setting": "Sagittaria pygmaea, L. [5]; Rate 0.0620 kg/ha", "result": 9.0},
      {"measurement": "herbicidal effect rating, SAGPY", "setting": "Sagittaria pygmaea, L. [5]; Rate 0.1250 kg/ha", "result": 9.0},
      {"measurement": "herbicidal effect rating, SAGPY", "setting": "Sagittaria pygmaea, L. [5]; Rate 0.2500 kg/ha", "result": 9.0},
      {"measurement": "herbicidal effect rating ORYSAT", "setting": "[6]; Rate 0.0320 kg/ha", "result": 9.0},
      {"measurement": "herbicidal effect rating ORYSAT", "setting": "[6]; Rate 0.0620 kg/ha", "result": 9.0},
      {"measurement": "herbicidal effect rating ORYSAT", "setting": "[6]; Rate 0.1250 kg/ha", "result": 9.0},
      {"measurement": "herbicidal effect rating ORYSAT", "setting": "[6]; Rate 0.2500 kg/ha", "result": 9.0},
      {"measurement": "herbicidal effect rating, CYPSE", "setting": "[7]; Rate 0.0320 kg/ha", "result": 9.0},
      {"measurement": "herbicidal effect rating, CYPSE", "setting": "[7]; Rate 0.0620 kg/ha", "result": 9.0},
      {"measurement": "herbicidal effect rating, CYPSE", "setting": "[7]; Rate 0.1250 kg/ha", "result": 9.0},
      {"measurement": "herbicidal effect rating, CYPSE", "setting": "[7]; Rate 0.2500 kg/ha", "result": 9.0},
      {"measurement": "herbicidal effect rating, ECHORC", "setting": "[8]; Rate 0.0320 kg/ha", "result": 9.0},
      {"measurement": "herbicidal effect rating, ECHORC", "setting": "[8]; Rate 0.0620 kg/ha", "result": 9.0},
      {"measurement": "herbicidal effect rating, ECHORC", "setting": "[8]; Rate 0.1250 kg/ha", "result": 9.0},
      {"measurement": "herbicidal effect rating, ORYSAT (rice tolerance)", "setting": "[9]; Rate 0.0320 kg/ha", "result": 8.0},
      {"measurement": "herbicidal effect rating, ORYSAT (rice tolerance)", "setting": "[9]; Rate 0.0620 kg/ha", "result": 8.0},
      {"measurement": "herbicidal effect rating, ORYSAT (rice tolerance)", "setting": "[9]; Rate 0.1250 kg/ha", "result": 9.0},
      {"measurement": "herbicidal effect rating, MOOVA", "setting": "[10]; Rate 0.0320 kg/ha", "result": 9.0},
      {"measurement": "herbicidal effect rating, MOOVA", "setting": "[10]; Rate 0.0620 kg/ha", "result": 9.0},
      {"measurement": "herbicidal effect rating, MOOVA", "setting": "[10]; Rate 0.1250 kg/ha", "result": 9.0},
      {"measurement": "herbicidal effect rating, MOOVA", "setting": "[10]; Rate 0.2500 kg/ha", "result": 9.0},
      {"measurement": "herbicidal effect rating, MOOVA", "setting": "[11]; Rate 0.0320 kg/ha", "result": 9.0},
      {"measurement": "herbicidal effect rating, MOOVA", "setting": "[11]; Rate 0.0620 kg/ha", "result": 9.0},
      {"measurement": "herbicidal effect rating, MOOVA", "setting": "[11]; Rate 0.1250 kg/ha", "result": 9.0},
      {"measurement": "herbicidal effect rating, CYPIR", "setting": "Cyperus iria [12]; Rate 0.0320 kg/ha", "result": 9.0},
      {"measurement": "herbicidal effect rating, CYPIR", "setting": "Cyperus iria [12]; Rate 0.0620 kg/ha", "result": 9.0},
      {"measurement": "herbicidal effect rating, CYPIR", "setting": "Cyperus iria [12]; Rate 0.1250 kg/ha", "result": 9.0},
      {"measurement": "herbicidal effect rating, CYPIR", "setting": "Cyperus iria [12]; Rate 0.2500 kg/ha", "result": 9.0}
    ]}
  ]
}
